Where two headings read alike, the source gives them in different places.

One data set in a line: in vivo. As to conditions: mouse, ip. The arrangement: species or system mice. On the procedure: Solutions of compounds in 10% w/v hydroxypropyl-β-cyclodextrin in 0.9% w/v saline were prepared. A dose of 40 mg/kg or 120 mg/kg of each compound was administered to mice (5 mice/compound/dose) via intraperitoneal injections.
A short description of data set [1]: Pharmacokinetics in rats after i.v. dosing: plasma and tissue content. The class given is in vivo. The note with it: 3.6 mg/kg i.v.; for concentration at 4 h: 3.6 mg/kg, liposomal. On the procedure:
The pharmacokinetics of the compound were evaluated in two rats after dosing at 3.6 mg/kg i.v using a liposomal formulation (1.8 mg/mL). […] Maximum concentrations of approximately 450 ng/ml were attained in plasma. […] Data on the accumulation of the compound in various tissues of the rats is contained in the table below.

Data set [2] concerns methicillin-resistant Staphylococcus aureus. The experiment in a line: Topical treatment of infected partial thickness wounds in pigs. Format: in vivo, methicillin-resistant Staphylococcus aureus; pigs. As to conditions: pig wounds, 200 mg of 2% w/w in PEG. On the procedure: This Example establishes the efficacy of an antibacterial compound of the present invention in the topical treatment of methicillin-resistant Staphylococcus aureus infections. Partial thickness wounds were made on properly anesthetized young, specific pathogen free female pigs (SPF; Ken-O-Kaw Frams, Windsor, Ill.) weighing 25-30 kg. The wounds were inoculated with methicillin-resistant Staphylococcus aureus (~10^6 CFU/mL). Within 10 minutes of inoculation 200 mg of test compound [2% w/w in polyethylene glycol (PEG)] was applied to each wound. Wounds were cultured on days 1, 2, and 3. Each site was cultured only once. The culture sample was treated with a neutralizer for the antimicrobial active ingredient. The samples were processed as is known in the art to determine the number of colony forming units per mL.

Consider `Clc1ccc2c(c1)[C@H]1OCC[C@H]1[C@@H](c1c[nH]c3ccc(Br)cc13)N2` (relative stereo), for which the survival at 168 h in the data set “in vivo” (40 mg/kg) and in the data set “in vivo” (120 mg/kg) was 100% in each case.

With `Clc1ccc2c(c1)[C@H]1OCC[C@H]1[C@H](c1c[nH]c3ccc(Br)cc13)N2` (relative stereo), the survival at 168 h in the data set “in vivo” (40 mg/kg) and in “in vivo” (120 mg/kg) was 100% each time.

As to `Brc1ccc2[nH]cc([C@H]3Nc4ccc(C#CCN5CCCCC5)cc4[C@H]4OCC[C@@H]34)c2c1` (relative stereo) [drawing 54], the concentration at 4 h in data set [1] (rat, brain, iv, rat 1, 4 h post dose, read-out: Compound Content in Brain) came out at 400 ng/g; in data set [1] (rat, brain, iv, rat 2, 4 h post dose, read-out: Compound Content in Brain), 400 ng/g; in data set [1] (rat, kidney, iv, rat 1, 4 h post dose, read-out: Compound Content in Kidney), 1300 ng/g; in data set [1] (rat, kidney, iv, rat 2, 4 h post dose, read-out: Compound Content in Kidney) it was 2200 ng/g; in data set [1] (rat, liver, iv, rat 1, 4 h post dose, read-out: Compound Content in Liver), 3200 ng/g; in data set [1] (rat, liver, iv, rat 2, 4 h post dose, read-out: Compound Content in Liver), 3000 ng/g. Further, the concentration at 4 h in data set [1] (rat, lung, iv, rat 1, 4 h post dose, read-out: Compound Content in Lung) was found to be 12100 ng/g; in data set [1] (rat, lung, iv, rat 2, 4 h post dose, read-out: Compound Content in Lung) it was 10900 ng/g; in data set [1] (rat, parietal peritoneum, iv, rat 1, 4 h post dose, read-out: Compound Content in Parietal Peritoneum), 1300 ng/g; in data set [1] (rat, parietal peritoneum, iv, rat 2, 4 h post dose, read-out: Compound Content in Parietal Peritoneum), 1600 ng/g; in data set [1] (rat, thigh muscle, iv, rat 2, 4 h post dose, read-out: Compound Content in Thigh Muscle), 700 ng/g. Besides, the Cmax in data set [1] (rat, plasma, iv, rats, liposomal formulation (1.8 mg/mL), read-out: Maximum concentrations in plasma) was approximately 450 ng/mL. Further, in data set [1] (rats, liposomal formulation), the “tolerability of the dose” value is reported as “well tolerated”. In data set [1] (rats, liposomal formulation, two-compartment open model), the “decline of plasma concentrations” value is “declined biexponentially”.

For `Brc1ccc2[nH]cc([C@H]3Nc4ccc(C#CCN5CCCCC5)cc4[C@H]4OCC[C@@H]34)c2c1` (relative stereo) [drawing 55], the “Log CFU/mL (mean ± SE)” value in data set [2] (24 h) turned out to be 5.92 Log CFU/mL; in data set [2] (48 h), 5.83 Log CFU/mL; in data set [2] (72 h), 5.66 Log CFU/mL.

The values are drawn from patent US6180640A, “Di- and tetra-hydroquinoline-indole antimicrobial agents, uses and compositions related thereto” (Sepracor, Inc., priority 1999, dated 2001).
